Data as given in publication PMC3949122 (Current biology : CB, 2014).
Like-named read-outs stand apart in the source and are kept apart here. Where no end group is shown, it is not given here.

Tests used:
[1] = system: TRPA1; settings: cited from earlier work; for activation of TRPA1 via covalent modification: ref [40]-[44]; for activation of TRPA1 by allosteric modulators: interact with transmembrane domains, not the intracellular C-terminus, ref [41], [45], [46]
[2] = system: NaV1.2; type: cell-based; settings: membrane-tethered, co-expressed; voltage-induced currents
[3] = target: TRPA1 (Homo sapiens, UniProt O75762); type: cell-based; settings: alanine scanning of t-ProTx-I; label = residue mutated to Ala
Chain of TRPA1 (Homo sapiens, UniProt O75762) (O75762 whole entry): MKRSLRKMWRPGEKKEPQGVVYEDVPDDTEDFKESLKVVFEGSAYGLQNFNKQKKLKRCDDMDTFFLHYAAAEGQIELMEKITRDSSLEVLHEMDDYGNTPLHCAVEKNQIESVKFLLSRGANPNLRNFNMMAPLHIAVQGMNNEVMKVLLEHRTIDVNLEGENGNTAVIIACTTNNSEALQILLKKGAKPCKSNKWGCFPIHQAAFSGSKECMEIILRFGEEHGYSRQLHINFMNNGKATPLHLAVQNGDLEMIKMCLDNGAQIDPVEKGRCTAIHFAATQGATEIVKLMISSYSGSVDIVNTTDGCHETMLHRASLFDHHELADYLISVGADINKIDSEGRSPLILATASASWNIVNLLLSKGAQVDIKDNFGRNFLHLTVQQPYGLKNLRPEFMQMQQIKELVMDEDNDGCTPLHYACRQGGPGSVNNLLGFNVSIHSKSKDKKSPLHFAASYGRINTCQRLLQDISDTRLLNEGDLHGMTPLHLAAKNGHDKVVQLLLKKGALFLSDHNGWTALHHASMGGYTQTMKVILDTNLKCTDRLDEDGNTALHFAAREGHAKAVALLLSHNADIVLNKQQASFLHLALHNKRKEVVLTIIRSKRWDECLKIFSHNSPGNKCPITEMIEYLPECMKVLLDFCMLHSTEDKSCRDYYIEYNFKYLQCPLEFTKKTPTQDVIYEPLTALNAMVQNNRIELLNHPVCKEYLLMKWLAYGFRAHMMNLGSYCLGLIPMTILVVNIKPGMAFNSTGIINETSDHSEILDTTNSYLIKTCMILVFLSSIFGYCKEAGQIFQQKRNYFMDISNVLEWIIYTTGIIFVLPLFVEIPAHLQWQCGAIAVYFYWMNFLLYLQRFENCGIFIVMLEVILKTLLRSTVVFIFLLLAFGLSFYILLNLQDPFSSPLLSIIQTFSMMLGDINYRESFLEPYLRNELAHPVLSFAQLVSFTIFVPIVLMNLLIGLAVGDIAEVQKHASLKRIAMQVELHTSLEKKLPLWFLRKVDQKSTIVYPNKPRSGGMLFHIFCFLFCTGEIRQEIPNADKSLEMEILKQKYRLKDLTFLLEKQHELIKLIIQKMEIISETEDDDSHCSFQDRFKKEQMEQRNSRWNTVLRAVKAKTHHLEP

OO [hydrogen peroxide]
activation of TRPA1 via covalent modification [1]: activates TRPA1

CN(C)CCCN1c2ccccc2Sc2ccc(Cl)cc21 [chlorpromazine]
activation of TRPA1 ([1]; ref [8]): activated

CCCCCC(O)/C=C/C=O (stereo not shown) [4-hydroxy-nonenal]
activation of TRPA1 via covalent modification [1]: activates TRPA1

OCl [hypochlorite]
activation of TRPA1 via covalent modification [1]: activates TRPA1

C=CCN=C=S [allyl isothiocyanate]
activation of TRPA1 via covalent modification [1]: activates TRPA1
activation of TRPA1 ([1]; ref [5], [6]): activated

C=CCS[S+]([O-])CC=C (stereo not shown) [allicin]
activation of TRPA1 ([1]; ref [5], [6]): activated

t-ProTx-I (S22A) (ECRYWLGGCSAGQTCCKHLVCARRHGWCVWDGTFS; ends and bridges not checked; also: membrane tether; UniProt P83480 1-35, looked up, variant S22A)
activity of t-ProTx-I alanine mutant against NaV1.2 / voltage-gated sodium channels [2]: strongly active
residue whose mutation to alanine reduces inhibition of TRPA1 (binding surface) [3]: in common between the two binding surfaces

Clc1ccccc1C(c1ccccc1)(c1ccccc1)n1ccnc1 [clotrimazole]
activation of TRPA1 ([1]; ref [7]): activated

Cc1ccc(C(C)C)cc1O [carvacrol]
activation of TRPA1 by allosteric modulators [1]: allosteric modulators

Oc1c(I)cc(Cl)c2cccnc12 [clioquinol]
activation of TRPA1 ([1]; ref [9]): activated

CC1CCC(C(C)C)C(O)C1 (stereo not shown) [menthol]
activation of TRPA1 by allosteric modulators [1]: allosteric modulators
